Measurements as given in patent publication US20190049456A1, “METHOD FOR DETECTING OR SEPARATING/OBTAINING CIRCULATING TUMOR CELL EMPLOYING CELL PROLIFERATION METHOD” (priority 2016, published 2019).

Tested on: circulating tumor cell (CTC)
Assay: CTC obtainment test (CTCs-inducing ability / CTC yield efficiency) by culture of patient PBMCs in test culture media
Format: cell-based, human
Conditions: additive component study
Description: Examples of the present invention followed experimental methods given below. Specifically, all experimental samples (peripheral blood from various cancer patients who donated blood) were aseptically treated by procedures given below. In the case where infections by various viruses such as HBV and HCV were found in advance according to information from each cooperating facility, the treatment thereof was tested aside from a non-infected group and proper medical waste treatment was carried out by medical waste treatment professionals. 1. A disposable 30 ml syringe for blood collection containing an appropriate amount of an anticoagulant heparin sodium (0.05 ml) was provided, and a disposable 30 ml blood collection syringe for serum procurement containing no heparin sodium was also provided. These syringes were respectively connected to insertion ports of L-type 180° three-way stopcock, while an appropriate 18-, 21- or 24-gauge butterfly needle was connected to the vascular vessel side to prepare for blood collection. 30 ml of blood per each sample was collected, and the following separation operation was carried out. 2. For serum collection, the blood collection syringe barrel with a needle put thereon was placed at 37° C. for 1 hour in a 5% CO2 incubator, followed by centrifugation at 3,000 rpm (800 G) at 4° C. for 30 minutes. […]

Substance: lipopolysaccharide [LPS]
- CTC-inducing effect: slightly observed
